Assay: xn = mol fraction of the nth substance listed
Details: 101.3 kPa, Liquid; for viscosity: Falling or rolling sphere viscometry; for mass density: Vibrating tube method

CCCC[n+]1ccn(C)c1.O=S(=O)([N-]S(=O)(=O)C(F)(F)F)C(F)(F)F + COC(=O)OC
Details | mass density [kg/m3] | viscosity [mPa·s]
288.15 K, x1 = 0.0898 | 1178.03 | 1.605
288.15 K, x1 = 0.1882 | 1250.71 | 3.207
288.15 K, x1 = 0.2749 | 1295.36 | 5.396
288.15 K, x1 = 0.3754 | 1334.26 | 9.186
288.15 K, x1 = 0.472 | 1362.15 | 14.3
288.15 K, x1 = 0.5745 | 1385.8 | 22.53
288.15 K, x1 = 0.673 | 1404.16 | 32.06
288.15 K, x1 = 0.7799 | 1419.88 | 44.52
288.15 K, x1 = 0.8948 | 1434.65 | 61.53
288.15 K, x1 = 1 | 1445.66 | 78.02
293.15 K, x1 = 0.0898 | 1172.07 | 1.473
293.15 K, x1 = 0.1882 | 1245.1 | 2.886
293.15 K, x1 = 0.2749 | 1289.95 | 4.762
293.15 K, x1 = 0.3754 | 1329.02 | 7.93
293.15 K, x1 = 0.472 | 1357.02 | 12.12
293.15 K, x1 = 0.5745 | 1380.77 | 18.87
293.15 K, x1 = 0.673 | 1399.14 | 26.3
293.15 K, x1 = 0.7799 | 1414.97 | 35.81
293.15 K, x1 = 0.8948 | 1429.79 | 48.74
293.15 K, x1 = 1 | 1440.84 | 61.32
298.15 K, x1 = 0.0898 | 1166.07 | 1.365
298.15 K, x1 = 0.1882 | 1239.48 | 2.611
298.15 K, x1 = 0.2749 | 1284.55 | 4.235
298.15 K, x1 = 0.3754 | 1323.78 | 6.922
298.15 K, x1 = 0.472 | 1351.9 | 10.39
298.15 K, x1 = 0.5745 | 1375.74 | 16.3
298.15 K, x1 = 0.673 | 1394.18 | 21.86
298.15 K, x1 = 0.7799 | 1410.07 | 29.38
298.15 K, x1 = 0.8948 | 1424.93 | 39.46
298.15 K, x1 = 1 | 1436.01 | 48.93
303.15 K, x1 = 0.0898 | 1160.05 | 1.263
303.15 K, x1 = 0.1882 | 1233.85 | 2.376
303.15 K, x1 = 0.2749 | 1279.14 | 3.797
303.15 K, x1 = 0.3754 | 1318.55 | 6.1
303.15 K, x1 = 0.472 | 1346.78 | 8.998
303.15 K, x1 = 0.5745 | 1370.71 | 14
303.15 K, x1 = 0.673 | 1389.23 | 18.59
303.15 K, x1 = 0.7799 | 1405.18 | 24.46
303.15 K, x1 = 0.8948 | 1420.08 | 32.86
303.15 K, x1 = 1 | 1431.21 | 39.84
308.15 K, x1 = 0.0898 | 1154.02 | 1.173
308.15 K, x1 = 0.1882 | 1228.22 | 2.176
308.15 K, x1 = 0.2749 | 1273.73 | 3.428
308.15 K, x1 = 0.3754 | 1313.32 | 5.404
308.15 K, x1 = 0.472 | 1341.67 | 7.885
308.15 K, x1 = 0.5745 | 1365.7 | 11.98
308.15 K, x1 = 0.673 | 1384.29 | 16.17
308.15 K, x1 = 0.7799 | 1400.31 | 20.58
308.15 K, x1 = 0.8948 | 1415.26 | 27.73
308.15 K, x1 = 1 | 1426.43 | 32.91
313.15 K, x1 = 0.0898 | 1147.98 | 1.095
313.15 K, x1 = 0.1882 | 1222.58 | 2.002
313.15 K, x1 = 0.2749 | 1268.32 | 3.113
313.15 K, x1 = 0.3754 | 1308.09 | 4.822
313.15 K, x1 = 0.472 | 1336.58 | 6.959
313.15 K, x1 = 0.5745 | 1360.7 | 10.3
313.15 K, x1 = 0.673 | 1379.37 | 14.01
313.15 K, x1 = 0.7799 | 1395.44 | 17.54
313.15 K, x1 = 0.8948 | 1410.45 | 23.58
313.15 K, x1 = 1 | 1421.66 | 27.56
318.15 K, x1 = 0.0898 | 1141.93 | 1.022
318.15 K, x1 = 0.1882 | 1216.94 | 1.849
318.15 K, x1 = 0.2749 | 1262.92 | 2.837
318.15 K, x1 = 0.3754 | 1302.88 | 4.332
318.15 K, x1 = 0.472 | 1331.49 | 6.189
318.15 K, x1 = 0.5745 | 1355.71 | 8.913
318.15 K, x1 = 0.673 | 1374.45 | 12.1
318.15 K, x1 = 0.7799 | 1390.59 | 15.2
318.15 K, x1 = 0.8948 | 1405.67 | 19.93
318.15 K, x1 = 1 | 1416.91 | 23.33
323.15 K, x1 = 0.0898 | 1135.85 | 0.958
323.15 K, x1 = 0.1882 | 1211.3 | 1.719
323.15 K, x1 = 0.2749 | 1257.51 | 2.6
323.15 K, x1 = 0.3754 | 1297.67 | 3.943
323.15 K, x1 = 0.472 | 1326.4 | 5.54
323.15 K, x1 = 0.5745 | 1350.73 | 7.757
323.15 K, x1 = 0.673 | 1369.55 | 10.53
323.15 K, x1 = 0.7799 | 1385.74 | 13.21
323.15 K, x1 = 0.8948 | 1400.88 | 17.01
323.15 K, x1 = 1 | 1412.17 | 19.97
328.15 K, x1 = 0.0898 | 1129.76 | 0.899
328.15 K, x1 = 0.1882 | 1205.65 | 1.588
328.15 K, x1 = 0.2749 | 1252.1 | 2.394
328.15 K, x1 = 0.3754 | 1292.46 | 3.59
328.15 K, x1 = 0.472 | 1321.33 | 4.994
328.15 K, x1 = 0.5745 | 1345.75 | 6.772
328.15 K, x1 = 0.673 | 1364.66 | 9.191
328.15 K, x1 = 0.7799 | 1380.9 | 11.54
328.15 K, x1 = 0.8948 | 1396.12 | 14.93
328.15 K, x1 = 1 | 1407.45 | 17.41

Reference: the NIST ThermoML archive (doi:10.1021/acs.jced.8b00591)
